“Also recorded” adds a separate entry of the source.
What was measured:
Caspase 3 = Caspase 3 protein level in dorsal root ganglion of SNL rats via Western blotting (Examples 10, 17); format: in vivo, Sprague Dawley rats; details: Left DRG of SNL rats, 160 mg/Kg PO for 5 days, vs. Vehicle treated SNL rats, unpaired t-test
From the text: Western blotting is a widely used analytical technique used to detect specific proteins in a sample of tissue homogenate or extract. Before one can perform Western blotting one must develop a technique for extracting the protein to be measured from the target tissue. Below is an example of the measurement of Caspase 3 from rat dorsal root ganglion (DRG) using Western blotting.
Protein Extraction Preparation: Frozen DRG tissue samples were homogenized in a radioimmunoprecipitation assay (RIPA) buffer (75 μl per sample) using a handheld pestle homogenizer, 30 seconds on ice. Samples were cleared by centrifugation at 14,000 rpm for 15 minutes at 4° C. Supernatants were collected and protein amount was determined using Bio-Rad DC protein kit.
Western Blotting: Protein samples were denatured in Laemmli buffer/2-mercaptoethanol for 5 minutes at 95 C. Denatured protein samples were separated by SDS-PAGE. After electrophoresis, proteins were transferred from gel to LFP-PVDF membranes by electroblotting. […]
Antibody binding was detected using the ECL Plus Western Chemifluorescence Detection Kit (Cat #32132, ThermoFisher Scientific). […] The scanned images from the Typhoon were analyzed with ImageQuantTL software version 7.0 (GE Healthcare Bioscience, Piscataway, NJ). Band intensities were determined using the Rolling Ball method. […]

[1] = Solubility testing (Example 27); format: physicochemical
Dissociation constant = format: physicochemical
[2] = test system: TDP-43 overexpressed flies; experiment: TDP-43 pupal lethality screen (Example 23); format: in vivo, Drosophila; details: larvae raised on 1 microMolar; DMSO control 51%
Description: Procedure: UAS TDP-43 male Drosophila flies were crossed with D42-Gal4 female virgins on fly food containing either DMSO or 1% Compound 118 in dimethyl sulfoxide (DMSO). For DMSO controls, the same volume of DMSO as the corresponding Compound 118 concentration was added. Bromophenol blue was added to a final concentration of around 0.02% to ensure homogeneity. Crosses were made on drug food with three female virgins and two males in each vial and were maintained at 25° C. unless noted. The parents were discarded after 5-7 days and then the vials were screened for adult progeny with straight wings from Day 14 to Day 25. All adults were screened for TDP-43 expression by visualizing the YFP tag. Total number of pupae was counted on Day 25. Percent survival was calculated using the formula (total number of straight-winged adults/total number of pupae)×100. All experiments were performed in triplicate. Read-outs include larval turning assay and pupil lethality screen.
Compound 118 (represented as AQU-118) caused a decrease in lethality from 51% (bottom left) to 39% (bottom right). In this screen the number of adult TDP-43 overexpressed flies that emerge from their pupae stage is compared to w1118 controls. Larvae were raised on either DMSO or Compound 118 at 1 microMolar. N=number of pupae counted. Alive=empty pupal cases, adults have emerged. […]

[3] = In-vivo oral PK of Compound 118 in SOD-1 mice (Example 19); parameters: species or system SOD-1-G93A (SOD-1) mice; details: for AUC / Cmax: SOD-1-G93A, mouse, po, PO 200 mg/Kg for 3 days
Description: The present example orally doses compound 118 once per day (SID) or twice per day (BID) for three days to a series of mice that have overexpression for the protein copper-zinc superoxide dismutase 1. Compound 118 was orally dosed in SOD-1-G93A (SOD-1) mice in a PK study. In summary, SOD-1 mice (At P100±4 days of age) received twice daily (BID) or once daily (SID) oral administration of 200 mg/Kg Compound 118 (as an aqueous suspension in 0.5% methylcellulose) for 3 days (Table 6). Plasma was collected from the tail vein at baseline (pre-dose), 15 min, 30 min, 1 h, 2 h, 4 h post-last PO dose on the third day. One animal from each group was euthanized 2 hrs. post dose on the third day of dosing where plasma, spinal cord, and brain tissue was collected post-mortem. The remaining 3 animals per group was euthanized six hours after the final dose on the third day, plasma, spinal cord, and brain tissue was then collected post-mortem. […] There was a significant difference in clearance of Compound 118 within plasma between male and female SOD-1 mice. […] Given the sex difference in clearance, it will be necessary to increase the amount that male SOD-1 mice are dosed compared to females SOD-1 mice in order maintain parity in exposure between the sexes.

[4] = female, plasma, 200 mg/kg, Female SOD-1 mice, BID
[5] = female, plasma, 200 mg/kg, Female SOD-1 mice, SID
[6] = male, plasma, 200 mg/kg, Male SOD-1 mice, BID
[7] = male, plasma, 200 mg/kg, Male SOD-1 mice, SID

SMILES: [2H]C([2H])([2H])c1ccc(C#Cc2ccc(S(=O)(=O)N[C@H](Cc3c[nH]c4ccccc34)C(=O)O)s2)cc1 [Compound 118, (R)-3-(1H-Indol-3-yl)-2-[5-(4-trideuteromethyl-phenylethynyl)-thiophene-2-sulfonylamino]-propionic acid-(D3, 98%)]
- caspase 3 protein level in dorsal root ganglion (Western blotting) (Caspase 3): significant decrease of caspase 3 protein; also recorded: decrease in the caspase-3 protein levels
- solubility in DMSO, acetone and methanol [1]: soluble
- solubility in water ([1]; as the free acid): poorly soluble
- dissociation constant (Dissociation constant): around 3.4
- lethality (dead pupae) [2]: 39%
- AUC in Female SOD-1 mice relative to male SOD-1 mice ([3]; 200 mg/Kg PO, plasma): 3-4 times
- concentration in the spinal cord ([3]; SOD-1 mice, 200 mg/Kg PO, T=2 hour from last dose on third day): 200-400 ng of AQU-118/gram spinal tissue
- oral bioavailability in plasma ([3]; SOD-1 mice, 200 mg/Kg PO, 200 mg/kg): good oral bioavailability
- oral bioavailability in plasma ([3]; SOD-1 mice, 200 mg/Kg PO, listed as AQU-118, 200 mg/kg): good bioavailability in plasma
- AUC [3, 4]: 394 µg·h/mL
- Cmax [3, 4]: 111 µg/mL
- AUC [3, 5]: 342 µg·h/mL
- Cmax [3, 5]: 96 µg/mL
- AUC [3, 6]: 115 µg·h/mL
- Cmax [3, 6]: 39.1 µg/mL
- AUC [3, 7]: 121 µg·h/mL
- Cmax [3, 7]: 44.5 µg/mL

Reference: US12589090B2, “Compounds and methods for the treatment of degenerative disorders” (Aquilus Pharmaceuticals, Inc., priority 2019, dated 2026)
